Key:
Format in all cases: in vivo
[1] = test system: barnyardgrass (Echinochloa crus-galli); test: Test A pre-/postemergence plant response
How it was run: (§1)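 Seeds planted in loam soil/sand blend; test chemicals in non-phytotoxic solvent mixture with surfactant applied as directed soil spray preemergence and, concurrently, postemergence to plants 2–10 cm tall at one- to two-leaf stage. Greenhouse ~10 days; visual injury vs untreated controls, 0 (no effect) to 100 (complete control).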

[2] = test system: corn (Zea mays); test: Test A pre-/postemergence plant response
How it was run: as §1

[3] = test system: giant foxtail (Setaria faberii); test: Test A pre-/postemergence plant response
How it was run: as §1

[4] = test system: large crabgrass (Digitaria sanguinalis); test: Test A pre-/postemergence plant response
How it was run: as §1

[5] = test system: morningglory (Ipomoea spp.); test: Test A pre-/postemergence plant response
How it was run: as §1

[6] = test system: pigweed (Amaranthus retroflexus); test: Test A pre-/postemergence plant response
How it was run: as §1

[7] = test system: velvetleaf (Abutilon theophrasti); test: Test A pre-/postemergence plant response
How it was run: as §1

[8] = test system: wheat (Triticum aestivum); test: Test A pre-/postemergence plant response
How it was run: as §1

[9] = test system: cocklebur (Xanthium strumarium); test: Test B pre-/postemergence plant response; conditions: for Cocklebur plant response rating (0 to 100 scale): 62 g ai/ha, postemergence, 0 is no effect, 100 is complete control; for Plant response rating, Cocklebur: Postemergence
How it was run: (§2)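 Visual injury, 0–100 scale (100 = complete control), rated against controls after 13 to 15 days in greenhouse. Pre-emergence: seeds in loam/sand soil, treated at planting. Post-emergence: 1- to 4-leaf plants (2 to 18 cm) in peat/vermiculite medium. Compounds formulated in non-phytotoxic solvent with surfactant.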

[10] = test system: morningglory (Ipomoea coccinea); test: Test B pre-/postemergence plant response; conditions: for Morningglory plant response rating (0 to 100 scale): 62 g ai/ha, postemergence, 0 is no effect, 100 is complete control; for Plant response rating, Morningglory: Postemergence
How it was run: as §2

[11] = test system: soybean (Glycine max); test: Test B pre-/postemergence plant response; conditions: for Soybean plant response rating (0 to 100 scale): 62 g ai/ha, postemergence, 0 is no effect, 100 is complete control; for Plant response rating, Soybean: Postemergence
How it was run: as §2

[12] = test system: wheat (Triticum aestivum); test: Test B pre-/postemergence plant response; conditions: for Wheat plant response rating (0 to 100 scale): 62 g ai/ha, postemergence, 0 is no effect, 100 is complete control; for Plant response rating, Wheat: Postemergence
How it was run: as §2

[13] = Postemergence, 125 g ai/ha, 0 to 100 scale where 0 is no effect and 100 is complete control
[14] = Postemergence, 500 g ai/ha, 0 to 100 scale, 0 = no effect, 100 = complete control, approx. ten days
[15] = Preemergence, 125 g ai/ha, 0 to 100 scale, 0 = no effect, 100 = complete control
[16] = Preemergence, 500 g ai/ha, visual injury, 0 to 100 scale (0 no effect, 100 complete control), approx. ten days
[17] = 31 g ai/ha, 0 to 100 scale (0 no effect, 100 complete control)
[18] = 125 g ai/ha, scale 0 to 100 (0 no effect, 100 complete control)
[19] = 250 g ai/ha, scale 0 to 100 (0 no effect, 100 complete control), 13 to 15 days

SMILES: O=C1CCCC(O)=C1C(=O)c1cnc(-c2ccccc2)n(C2CCOCC2)c1=O [Compound 129]
- Plant response rating, Barnyardgrass [1, 13]: 90
- Plant response rating, Barnyardgrass [1, 14]: 100
- Plant response rating, Barnyardgrass [1, 15]: 30
- Plant response rating, Barnyardgrass [1, 16]: 100
- Plant response rating, Corn [2, 13]: 20
- Plant response rating, Corn [2, 14]: 50
- Plant response rating, Corn [2, 15]: 0
- Plant response rating, Corn [2, 16]: 0
- Plant response rating, Foxtail, Giant [3, 13]: 90
- Plant response rating, Foxtail, Giant [3, 14]: 90
- Plant response rating, Foxtail, Giant [3, 15]: 40
- Plant response rating, Foxtail, Giant [3, 16]: 80
- Plant response rating, Crabgrass, Large [4, 13]: 90
- Plant response rating, Crabgrass, Large [4, 14]: 90
- Plant response rating, Crabgrass, Large [4, 15]: 70
- Plant response rating, Crabgrass, Large [4, 16]: 90
- Plant response rating, Morningglory [5, 13]: 100
- Plant response rating, Morningglory [5, 14]: 100
- Plant response rating, Morningglory [5, 16]: 90
- Plant response rating, Pigweed [6, 13]: 100
- Plant response rating, Pigweed [6, 14]: 100
- Plant response rating, Pigweed [6, 15]: 100
- Plant response rating, Pigweed [6, 16]: 100
- Plant response rating, Velvetleaf [7, 13]: 100
- Plant response rating, Velvetleaf [7, 14]: 100
- Plant response rating, Velvetleaf [7, 15]: 80
- Plant response rating, Velvetleaf [7, 16]: 90
- Plant response rating, Wheat [8, 13]: 0
- Plant response rating, Wheat [8, 14]: 20
- Plant response rating, Wheat [8, 15]: 0
- Plant response rating, Wheat [8, 16]: 0
- Cocklebur plant response rating (0 to 100 scale) ([9]; 13 to 15 days): 98
- Plant response rating, Cocklebur [9, 17]: 95
- Plant response rating, Cocklebur [9, 18]: 98
- Plant response rating, Cocklebur [9, 19]: 100
- Morningglory plant response rating (0 to 100 scale) ([10]; 13 to 15 days): 90
- Plant response rating, Morningglory [10, 17]: 90
- Plant response rating, Morningglory [10, 18]: 90
- Plant response rating, Morningglory [10, 19]: 90
- Soybean plant response rating (0 to 100 scale) ([11]; 13 to 15 days): 98
- Plant response rating, Soybean [11, 17]: 95
- Plant response rating, Soybean [11, 18]: 98
- Plant response rating, Soybean [11, 19]: 98
- Wheat plant response rating (0 to 100 scale) ([12]; 13 to 15 days): 0
- Plant response rating, Wheat [12, 17]: 0
- Plant response rating, Wheat [12, 18]: 0
- Plant response rating, Wheat [12, 19]: 0

SMILES: O=C1CCCC(O)=C1C(=O)c1cnc(-c2ccccc2)n(C2CCCCCC2)c1=O [Compound 130]
- Plant response rating, Barnyardgrass [1, 13]: 100
- Plant response rating, Barnyardgrass [1, 14]: 100
- Plant response rating, Barnyardgrass [1, 15]: 20
- Plant response rating, Barnyardgrass [1, 16]: 90
- Plant response rating, Corn [2, 13]: 10
- Plant response rating, Corn [2, 14]: 50
- Plant response rating, Corn [2, 15]: 20
- Plant response rating, Corn [2, 16]: 30
- Plant response rating, Foxtail, Giant [3, 13]: 80
- Plant response rating, Foxtail, Giant [3, 14]: 90
- Plant response rating, Foxtail, Giant [3, 15]: 20
- Plant response rating, Foxtail, Giant [3, 16]: 90
- Plant response rating, Crabgrass, Large [4, 13]: 70
- Plant response rating, Crabgrass, Large [4, 14]: 100
- Plant response rating, Crabgrass, Large [4, 15]: 40
- Plant response rating, Crabgrass, Large [4, 16]: 100
- Plant response rating, Morningglory [5, 13]: 100
- Plant response rating, Morningglory [5, 14]: 100
- Plant response rating, Morningglory [5, 15]: 10
- Plant response rating, Morningglory [5, 16]: 80
- Plant response rating, Pigweed [6, 13]: 100
- Plant response rating, Pigweed [6, 14]: 100
- Plant response rating, Pigweed [6, 15]: 90
- Plant response rating, Pigweed [6, 16]: 100
- Plant response rating, Velvetleaf [7, 13]: 100
- Plant response rating, Velvetleaf [7, 14]: 100
- Plant response rating, Velvetleaf [7, 15]: 80
- Plant response rating, Velvetleaf [7, 16]: 90
- Plant response rating, Wheat [8, 13]: 0
- Plant response rating, Wheat [8, 14]: 30
- Plant response rating, Wheat [8, 15]: 0
- Plant response rating, Wheat [8, 16]: 0
- Cocklebur plant response rating (0 to 100 scale) ([9]; 13 to 15 days): 95
- Plant response rating, Cocklebur [9, 17]: 85
- Plant response rating, Cocklebur [9, 18]: 95
- Plant response rating, Cocklebur [9, 19]: 100
- Morningglory plant response rating (0 to 100 scale) ([10]; 13 to 15 days): 95
- Plant response rating, Morningglory [10, 17]: 95
- Plant response rating, Morningglory [10, 18]: 100
- Plant response rating, Morningglory [10, 19]: 100
- Soybean plant response rating (0 to 100 scale) ([11]; 13 to 15 days): 98
- Plant response rating, Soybean [11, 17]: 98
- Plant response rating, Soybean [11, 18]: 98
- Plant response rating, Soybean [11, 19]: 100
- Wheat plant response rating (0 to 100 scale) ([12]; 13 to 15 days): 5
- Plant response rating, Wheat [12, 17]: 5
- Plant response rating, Wheat [12, 18]: 5
- Plant response rating, Wheat [12, 19]: 10

Source: US8952024B2, “Herbicidal pyrimidone derivatives” (E I du Pont de Nemours and Company, priority 2009, dated 2015)
